Where two headings read alike, the source gives them in different places.
What was measured:
[1] = cited from earlier work
lysozyme (Lys) [2] = target: T1, lysozyme (Lys) (Gallus gallus, UniProt P00698); assay: Far-UV CD secondary structure content of lysozyme (K2D deconvolution); parameters: species or system chicken; Lys α-helix content / Lys β-sheet content / Lys random coil content / α-helix content / β-sheet content / Random coil content: unit not given here; conditions: 25 °C; for Lys random coil content / Lys α-helix content / Lys β-sheet content: 1.0 mg/ml Lys
T1 construct: Lyophilized lysozyme from chicken egg white, ≥90% purity; purchased Millipore (Darmstadt, Germany); host or cells: chicken egg white (natural source)
Procedure: Circular dichroism (CD) spectroscopy is broadly applied to assess the secondary structure of proteins because different structural elements have characteristic CD spectra. […] For [C4C1Im][CF3SO3] (mere fluoro-containing IL), the structural content was estimated for the concentration range (0.1–200 mM). […] FIL and [ N1112(OH) ][H2PO4] […] No substantial protein structural modification upon the ABS phase-forming component addition was verified.
Circular dichroism (CD) spectra were collected in a 10 mm quartz cuvette and a Chirascan spectropolarimeter (Applied Photophysics, Leatherhead, UK) at room temperature. All CD spectra were recorded in far-UV 190 to 260 nm at scan rates of 50 nm/min, 4 accumulations, and a response time of 3 s. Each CD experiment involved the acquisition and combination of two distinct duplicates. […] Spectral deconvolution was carried out with Dichroweb using the K2D algorithm.

lysozyme (Lys) [3] = target: T1, lysozyme (Lys); assay: DSC thermal stability (Tm, ΔH) of lysozyme in water, component solutions and ABS phases; parameters: species or system chicken; conditions: for Lys Tm / Lys ∆H: 1.0 mg/mL Lys
Source text: Differential scanning calorimetry (DSC) measurements (Section 3) were used to determine the melting temperature ( Tm ) and enthalpy ( Δ H) of lysozyme, at which both the folded and unfolded states coexist at equilibrium. DSC outputs, thermal transitions at the nanoscale level, allow to analyze alterations on proteins structure and stability, providing sharp perceptions of the factors affecting stability, as well as of the folding and unfolding processes. […] (DSC curve depicted in Figure S16 of Supplementary Materials).
FIL (BP#8, BP#10, BP#11, and BP#12). […] For the system based on [C4C1Im][CF3SO3]
The thermal stability of lysozyme was analyzed in water, ABS phase-forming compounds aqueous solutions, and partition ABS phases. […] Partition lysozyme on each phase from the prepared biphasic points as well as recovered protein from the FIL-rich phase were also addressed for a selection of studied systems listed in Table 1. We acquired thermograms using a TA^TM Nano DSC from TA Instruments. All scans were conducted in a 300 μ L capillary cell through a temperature ramp from 20 to 90 °C at a heating rate of 1 °C/min and 3 atm pressure. All samples were degassed for 7 min at 20 °C, with the exception of FIL-containing samples owing to their surfactant properties. After subtracting the polynomial fit baselines, raw thermogram curve data were fitted with the TwoStateScaled model using NanoAnalyze TA Instruments software, version 3.12, to determine the protein thermal transition temperatures in each sample. During nanoDSC scans, Δ H and Δ S were obtained and utilized to determine Δ G ( Δ G = Δ H − T Δ S).

lysozyme (Lys) [4] = target: T1, lysozyme (Lys); parameters: method as in PMID 28478279, PMID 17406547; conditions: cited from earlier work
lysozyme (Lys) [5] = target: T1, lysozyme (Lys); assay: Intrinsic (tryptophan) fluorescence of lysozyme; parameters: species or system chicken; conditions: 0.2 mg/mL Lys, excitation 295 nm, component 0.1–800 mM, 25 °C
Source text: (FIL), [C4C1Im][CF3SO3] (mere fluoro-containing IL), and [ N1112(OH) ][H2PO4] (globular protein stabilizer). […] Even though large changes in protein conformation can modify the intensity of tyrosine and phenylalanine fluorescence signals, their low extinction coefficients and quantum yields, as well as their relative lower sensitivity to environmental changes, make them a less appealing candidate. Tryptophan is frequently found concealed in the hydrophobic core of proteins due to its aromatic nature. […] The tryptophan release energy is particularly sensitive to the polarity (and dynamics) of the environment because the excited-state dipole moment is quite large. Reactions to denaturation, substrate binding, subunit association, and conformational transitions create variations in the tryptophan emission spectra. The spectrum shift generally known as blue shift, a shift of the maximum emission towards smaller wavelengths, denotes that the aromatic residue is buried in the native structure of the protein [67]. […] Furthermore, the amount of exposure of the fluorophores to the solvent is associated with the increase or decrease in the intensity of the emission spectrum. […] [C4C1Im][CF3SO3] and [ N1112(OH) ][H2PO4] […] Variations in lysozyme spectra are caused by ligand-induced changes in the microenvironment of tryptophan residues, either by shifting the maximum peak wavelength (blue or red shift) or by altering peak intensities. These changes can be used as a measure of the effect of the ABS phase-forming components on protein folding and unfolding.
Intrinsic fluorescence spectroscopy measurements of lysozyme’s tryptophan residues were carried out on a Spex Horiba Jobyin Yvon spectrofluorometer (HORIBA Jobin Yvon, France) using a 10 mm path length quartz cuvette. […] The excitation and emission slit widths of 2 nm were used for all the measurements. Maximum fluorescence values were attained as the average of three measurements.

FITC-Lys (lysozyme) = target: T2, FITC-Lys (lysozyme) (Gallus gallus, UniProt P00698); assay: Microscale thermophoresis (MST) binding of ABS phase-forming components to FITC-labeled lysozyme; parameters: species or system chicken; conditions: FITC-Lys 0.41 μM, 25 °C
T2 construct: Lyophilized lysozyme from chicken egg white, ≥90% purity; purchased Millipore (Darmstadt, Germany); host or cells: chicken egg white (natural source)
Procedure: Usually, in the labeling process, the position of dye is statistically distributed, and one amine per protein is labeled. […] The four ABS phase-forming components, [ N1112(OH) ][H2PO4] […] (FILs), and [C4C1Im][CF3SO3] […] In each run of MST, a maximum concentration of ligand was selected and consecutively diluted in sixteen capillaries.
Binding studies were conducted through microscale thermophoresis measurements of dye-labeled lysozyme. […] MST tests were conducted in a monolith NT.115 (blue/red) in accordance with the Nano Temper Technologies methodology. Medium MST power and 20% LED power (nano-blue) were set as the instrument’s default settings. For each and every MST measurement, PBS buffer was used. […] For each ligand, a series of 16 1:1 dilutions was prepared using the same buffer, varying the starting ligand concentration from 15 to 400 mM. MST traces were recorded using the standard parameters: 5 s MST power off, 30 s MST power on, and 5 s MST power off. Three independently conducted pipetted experiments’ data were examined using NanoTemper Technologies’ MO. Affinity Analysis program, version 2.3.

[6] = parameters: method as in earlier work; conditions: aqueous solution, 25 °C, conductometry; ref 21 (supplement ref 1); cited from earlier work
[7] = max. conc. (first capillary) in monomer range: below 1st CAC for FILs, ]0, 100] mM for non-aggregating ligands

T2 sequence (P00698 19-147): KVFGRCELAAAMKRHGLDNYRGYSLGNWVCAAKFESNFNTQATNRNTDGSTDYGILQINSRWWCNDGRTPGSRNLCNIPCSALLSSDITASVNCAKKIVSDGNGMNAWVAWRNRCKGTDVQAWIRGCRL
T1 sequence (P00698 19-147): as above

Molecule	Lys random coil content (lysozyme (Lys) [2]; 0.1 mM component)	Lys α-helix content (lysozyme (Lys) [2]; 0.1 mM component)	Lys β-sheet content (lysozyme (Lys) [2]; 0.1 mM component)	Lys random coil content (lysozyme (Lys) [2]; 1 mM component)	Lys α-helix content (lysozyme (Lys) [2]; 1 mM component)	Lys β-sheet content (lysozyme (Lys) [2]; 1 mM component)	Lys random coil content (lysozyme (Lys) [2]; 5 mM component)	Lys α-helix content (lysozyme (Lys) [2]; 5 mM component)	Lys β-sheet content (lysozyme (Lys) [2]; 5 mM component)	Lys random coil content (lysozyme (Lys) [2]; 25 mM component)	Lys α-helix content (lysozyme (Lys) [2]; 25 mM component)	Lys β-sheet content (lysozyme (Lys) [2]; 25 mM component)	Lys Tm (lysozyme (Lys) [3]; 0.1 mM component in water)	Lys ∆H (lysozyme (Lys) [3]; 0.1 mM component in water)	Lys Tm (lysozyme (Lys) [3]; 1 mM component in water)	Lys ∆H (lysozyme (Lys) [3]; 1 mM component in water)	Lys Tm (lysozyme (Lys) [3]; 5 mM component in water)	Lys ∆H (lysozyme (Lys) [3]; 5 mM component in water)	Lys Tm (lysozyme (Lys) [3]; 10 mM component in water)	Lys ∆H (lysozyme (Lys) [3]; 10 mM component in water)	other results
Lys: lysozyme from chicken egg white (muramidase, EC 3.2.1.17), 14 kDa globular protein used as protein model	–	–	–	–	–	–	–	–	–	–	–	–	–	–	–	–	–	–	–	–	isoelectric point [1]: around 11.0; α-helix, secondary structure prediction (lysozyme (Lys) [2]; 1.0 mg/mL Lys in water): 29%; β-strand, secondary structure prediction (lysozyme (Lys) [2]; 1.0 mg/mL Lys in water): 14%; Random coil content (lysozyme (Lys) [2]; 1.0 mg/ml Lys in water (0 mM)): 0.57; α-helix content (lysozyme (Lys) [2]; 1.0 mg/ml Lys in water (0 mM)): 0.29; β-sheet content (lysozyme (Lys) [2]; 1.0 mg/ml Lys in water (0 mM)): 0.14; Tm (lysozyme (Lys) [3]; 0.5 mg/ml Lys in water): 69.26±0.031 °C; ∆H (lysozyme (Lys) [3]; 1.0 mg/mL Lys in water): 118 kcal/mol; Tm (lysozyme (Lys) [3]; 3.0 mg/ml Lys in water): 73.85±0.005 °C; β-strand, analysis based on various methods (lysozyme (Lys) [4]): ≈ 19%
C[N+](C)(C)CCO.C[N+](C)(C)CCO.O=P([O-])(O)O.O=P([O-])(O)O [[N1112(OH) ][H2PO4], Choline ((2-hydroxyethyl)trimethylammonium) dihydrogen phosphate]	0.56	0.29	0.15	0.58	0.28	0.14	0.56	0.25	0.18	0.57	0.24	0.2	77.10 °C	134.8 kcal/mol	77.11 °C	132.5 kcal/mol	76.70 °C	142.8 kcal/mol	77.06 °C	137.8 kcal/mol	Lys fluorescence emission intensity with increasing component concentration (lysozyme (Lys) [5]): reduction in fluorescence emission intensity; Lys maximum emission wavelength with increasing component concentration (lysozyme (Lys) [5]): remains constant; Kd (FITC-Lys (lysozyme); [7]): no binding detected
O=S(=O)(O)C(F)(F)C(F)(F)C(F)(F)C(F)(F)F [[N1112(OH) ][C4F9SO3]]	–	–	–	–	–	–	–	–	–	–	–	–	–	–	–	–	–	–	–	–	Kd (FITC-Lys (lysozyme); max. conc. (first capillary) in 1st CAC range ([14.4, 34.48[ or [16.02, 35.17[ mM), read-out: Kd): 6.05 ± 1.67 mM; Kd (FITC-Lys (lysozyme); max. conc. (first capillary) in 2nd CAC range ([34.48, 76.54[ or [35.17, 185.65[ mM), read-out: Kd): 6.25 ± 1.47 mM
C[N+](C)(C)CCO.O=S(=O)([O-])C(F)(F)C(F)(F)C(F)(F)C(F)(F)F [[N1112(OH) ][C4F9SO3]]	0.57	0.28	0.15	0.58	0.28	0.14	0.56	0.25	0.19	0.57	0.24	0.2	77.15 °C	136.3 kcal/mol	76.65 °C	127.7 kcal/mol	75.19 °C	123 kcal/mol	74.28 °C	134 kcal/mol	1st CAC [6]: 16.02 mM; 2nd CAC [6]: 35.17 mM; 3rd CAC [6]: 185.65 mM; Lys Tm (lysozyme (Lys) [3]; 25 mM component in water, several transitions listed singly, listed as [N1112(OH)][C4F9SO3]): 83.98 °C; Kd (FITC-Lys (lysozyme); [7]): no binding detected

— publication PMC11172314, “Towards Enhanced Tunability of Aqueous Biphasic Systems: Furthering the Grasp of Fluorinated Ionic Liquids in the Purification of Proteins” (International Journal of Molecular Sciences, 2024)
